Read-outs that look alike come from different tables or passages of the source.
Assay: Levels of PCB 95 and its hydroxylated metabolites in adipose, blood, brain and liver 24 h after a single oral dose (GC-MS/MS)
Assay type: in vivo, mice
Conditions: for Levels in blood / Levels in adipose / Levels in liver / concentration at 24 h: 1 mg/kg; for concentration at 24 h: po
Protocol: Adult male and female wild-type (WT) C57BL/6 mice, KO, and KI mice (4 months old) were exposed to racemic PCB 95. Mice were randomly assigned to exposure groups and received a single oral dose of PCB 95 (1.0 mg/kg) in stripped corn oil (10 mL/kg; lot# A0395699; cat# 801-03-7; Fisher Scientific) via gavage (5–7 mice per group). Control animals received corn oil alone (1–3 mice per group) to assess the potential background contamination with PCB 95. Animals were euthanized 24 h after PCB 95 exposure. Blood was collected from the heart and placed in pre-weighed glass vials with 80 μL of ethylenediaminetetraacetic acid solution (EDTA, 7.5%, w/w). The amount of blood in each vial was determined by weight prior to sample extraction. Adipose, brain, and liver tissues were excised from each animal and individually wrapped in aluminum foil. Samples were stored at −80 °C in separate plastic bags and shipped on dry ice to the University of Iowa for analysis.
PCB 95 and its hydroxylated metabolites were extracted from adipose (0.06 ± 0.01 g), brain (0.19 ± 0.03 g) and liver tissues (0.49 ± 0.07 g) by pressurized liquid extraction (PLE) with a Dionex ASE200 system (Dionex, Sunnyvale, CA, USA).[45] Tissues were homogenized with 2 g of pre-cleaned diatomaceous earth (Thermo Fisher Scientific, Pittsburgh, PA, USA) and placed in extraction cells loaded with 10 g of pre-extracted Florisil (60–100 mesh, Fisher Scientific, Pittsburgh, PA, USA). Tissue samples were then spiked with recovery standards [50 ng of PCB 117 in 50 μL of isooctane and 50 ng of 4′-159 (2′,3,3′,5,5′,6′-hexachlorobiphenyl-4-ol) in 50 μL of methanol]. For ongoing precision recovery (OPR) samples; recovery standard, internal standard, PCB 95, and its metabolites (50 ng each) were spiked to the method blank (DE only) and tissues from control animals. Cells were extracted with hexane–dichloromethane–methanol (48:43:9, v/v/v) at 100 °C and 1500 psi (10 MPa), with preheat equilibration for 6 min, 60% of cell flush volume, and 1 static cycle of 5 min. The extracts were concentrated to approximately 1 mL with a TurboVap II (Biotage, LLC, NC, USA) and transferred to new glass tubes with 1 mL of hexane. The solvent was evaporated to near dryness under a gentle stream of nitrogen, and extracts were redissolved in 1 mL of hexane.
PCB 95 and its hydroxylated metabolites were extracted from whole blood (0.45 ± 0.13 g) using a published liquid–liquid extraction procedure.[29] Briefly, blood samples were thawed, and 3 mL of aqueous 1% KCl solution was added to each sample. Recovery standards (50 ng of PCB 117 in 50 μL of isooctane and 50 ng of 4′-159 in 50 μL of methanol) were spiked to all samples, including OPR samples, before extraction. Subsequently, 1 mL of 6 M HCl, 5 mL of 2-propanol, and 5 mL of 1:1 hexane–MTBE mixture (v/v) were added to the blood samples. The samples were inverted for 5 min and centrifuged at 1690g for 5 min to facilitate the phase separation. Next, the organic phases were transferred to new glass tubes, and the aqueous phases were re-extracted with 3 mL of hexane. Next, three mL of aqueous 1% KCl were added to the combined organic extracts, and samples were inverted and centrifuged as described above. The organic phase was transferred to a new tube, and the aqueous phase was re-extracted with 3 mL of hexane. The combined organic extracts were evaporated to near dryness using a Savant SpeedVac SPD210 (Thermo Scientific, Waltham, MA, US), and each sample was reconstituted with 0.5 mL of hexane.
Five drops of methanol and 0.5 mL of diazomethane (CH2N2; about 0.1 mmol) in diethyl ether were added to the tissue or blood extracts to derivatize the OH-PCBs.[45] Diazomethane rapidly converts the phenolic hydroxyl groups of OH-PCBs to methoxy groups (i.e., −OH → −OCH3). All samples were stored at 4 °C for approximately 16 h. Excess diazomethane evaporated under a gentle stream of nitrogen in a fume hood, followed by adding 0.5 mL of hexane. […]

[1] = MKI, male CYP2A6-humanized mice, single oral PCB 95 1.0 mg/kg, mean ± SD
[2] = MWT, male wildtype mice, single oral PCB 95 1.0 mg/kg, mean ± SD

SMILES: Clc1ccc(Cl)c(-c2c(Cl)ccc(Cl)c2Cl)c1 [PCB 95, 2,2′,3,5′,6-pentachlorobiphenyl]
- Levels in blood (FKO, female Cyp2abfgs-null mice, single oral PCB 95 1.0 mg/kg, mean ± SD): 9 ng/g tissue
- Levels in adipose (FWT, female wildtype mice, single oral PCB 95 1.0 mg/kg, mean ± SD): 1300 ng/g tissue
- Levels in blood [1]: 16 ng/g tissue
- Levels in liver [1]: 183 ng/g tissue
- Levels in adipose (MKO, male Cyp2abfgs-null mice, single oral PCB 95 1.0 mg/kg, mean ± SD): 690 ng/g tissue
- Levels in adipose [2]: 1300 ng/g tissue
- Levels in liver [2]: 96 ng/g tissue
- Kp at 24 h (both sexes, C57BL/6 (wild-type), KO and KI, mouse, adipose / whole blood, all six exposure groups, single oral 1.0 mg/kg, read-out: Mean adipose levels, times higher than the blood levels): 42 to 68
- concentration at 24 h (both sexes, C57BL/6 (wild-type), KO and KI, mouse, brain, range across all three genotypes and both sexes, single oral 1.0 mg/kg, read-out: PCB 95 levels in the whole brain): 13 to 21 ng/g
- concentration at 24 h (female, C57BL/6 (wild-type), mouse, adipose, FWT, female wildtype mice, single oral PCB 95 1.0 mg/kg, mean ± SD, read-out: Levels in adipose): 1310 ± 405 ng/g
- concentration at 24 h (female, C57BL/6 (wild-type), mouse, brain, FWT, female wildtype mice, single oral PCB 95 1.0 mg/kg, mean ± SD, read-out: Levels in brain): 19.2 ± 7.3 ng/g
- concentration at 24 h (female, C57BL/6 (wild-type), mouse, liver, FWT, female wildtype mice, single oral PCB 95 1.0 mg/kg, mean ± SD, read-out: Levels in liver): 120 ± 42.1 ng/g
- concentration at 24 h (female, C57BL/6 (wild-type), mouse, whole blood, FWT, female wildtype mice, single oral PCB 95 1.0 mg/kg, mean ± SD, read-out: Levels in blood): 9.1 ± 2.7 ng/g
- concentration at 24 h (female, CYP2A6-humanized (KI), mouse, adipose, FKI, female CYP2A6-humanized mice, single oral PCB 95 1.0 mg/kg, mean ± SD, read-out: Levels in adipose): 824 ± 458 ng/g
- concentration at 24 h (female, CYP2A6-humanized (KI), mouse, brain, FKI, female CYP2A6-humanized mice, single oral PCB 95 1.0 mg/kg, mean ± SD, read-out: Levels in brain): 19.7 ± 6.8 ng/g
- concentration at 24 h (female, CYP2A6-humanized (KI), mouse, liver, FKI, female CYP2A6-humanized mice, single oral PCB 95 1.0 mg/kg, mean ± SD, read-out: Levels in liver): 114 ± 44.1 ng/g
- concentration at 24 h (female, CYP2A6-humanized (KI), mouse, whole blood, FKI, female CYP2A6-humanized mice, single oral PCB 95 1.0 mg/kg, mean ± SD, read-out: Levels in blood): 12.9 ± 15.4 ng/g
- concentration at 24 h (female, Cyp2abfgs-null (KO), mouse, adipose, FKO, female Cyp2abfgs-null mice, single oral PCB 95 1.0 mg/kg, mean ± SD, read-out: Levels in adipose): 859 ± 317 ng/g
- concentration at 24 h (female, Cyp2abfgs-null (KO), mouse, brain, FKO, female Cyp2abfgs-null mice, single oral PCB 95 1.0 mg/kg, mean ± SD, read-out: Levels in brain): 20.6 ± 8.2 ng/g
- concentration at 24 h (female, Cyp2abfgs-null (KO), mouse, liver, FKO, female Cyp2abfgs-null mice, single oral PCB 95 1.0 mg/kg, mean ± SD, read-out: Levels in liver): 109 ± 29.7 ng/g
- concentration at 24 h (female, Cyp2abfgs-null (KO), mouse, whole blood, FKO, female Cyp2abfgs-null mice, single oral PCB 95 1.0 mg/kg, mean ± SD, read-out: Levels in blood): 8.6 ± 4.2 ng/g
- concentration at 24 h (male, C57BL/6 (wild-type), mouse, adipose, MWT, male wildtype mice, single oral PCB 95 1.0 mg/kg, mean ± SD, read-out: Levels in adipose): 1320 ± 297 ng/g
- concentration at 24 h (male, C57BL/6 (wild-type), mouse, brain, MWT, male wildtype mice, single oral PCB 95 1.0 mg/kg, mean ± SD, read-out: Levels in brain): 19.3 ± 4 ng/g
- concentration at 24 h (male, C57BL/6 (wild-type), mouse, liver, MWT, male wildtype mice, single oral PCB 95 1.0 mg/kg, mean ± SD, read-out: Levels in liver): 96.3 ± 31.7 ng/g
- concentration at 24 h (male, C57BL/6 (wild-type), mouse, whole blood, MWT, male wildtype mice, single oral PCB 95 1.0 mg/kg, mean ± SD, read-out: Levels in blood): 14.1 ± 2 ng/g
- concentration at 24 h (male, CYP2A6-humanized (KI), mouse, adipose, MKI, male CYP2A6-humanized mice, single oral PCB 95 1.0 mg/kg, mean ± SD, read-out: Levels in adipose): 734 ± 355 ng/g
- concentration at 24 h (male, CYP2A6-humanized (KI), mouse, brain, MKI, male CYP2A6-humanized mice, single oral PCB 95 1.0 mg/kg, mean ± SD, read-out: Levels in brain): 13.3 ± 5.7 ng/g
- concentration at 24 h (male, CYP2A6-humanized (KI), mouse, liver, MKI, male CYP2A6-humanized mice, single oral PCB 95 1.0 mg/kg, mean ± SD, read-out: Levels in liver): 183 ± 190 ng/g
- concentration at 24 h (male, CYP2A6-humanized (KI), mouse, whole blood, MKI, male CYP2A6-humanized mice, single oral PCB 95 1.0 mg/kg, mean ± SD, read-out: Levels in blood): 15.6 ± 18.3 ng/g
- concentration at 24 h (male, Cyp2abfgs-null (KO), mouse, adipose, MKO, male Cyp2abfgs-null mice, single oral PCB 95 1.0 mg/kg, mean ± SD, read-out: Levels in adipose): 692 ± 93 ng/g
- concentration at 24 h (male, Cyp2abfgs-null (KO), mouse, brain, MKO, male Cyp2abfgs-null mice, single oral PCB 95 1.0 mg/kg, mean ± SD, read-out: Levels in brain): 13.1 ± 6.1 ng/g
- concentration at 24 h (male, Cyp2abfgs-null (KO), mouse, liver, MKO, male Cyp2abfgs-null mice, single oral PCB 95 1.0 mg/kg, mean ± SD, read-out: Levels in liver): 146 ± 42.6 ng/g
- concentration at 24 h (male, Cyp2abfgs-null (KO), mouse, whole blood, MKO, male Cyp2abfgs-null mice, single oral PCB 95 1.0 mg/kg, mean ± SD, read-out: Levels in blood): 10.6 ± 7.4 ng/g
